{"source": "patent EP0950418A2", "about": "“Composition for preventing or treating ischemic disease” (Takeda Chemical Industries, Ltd., priority 1998, dated 1999)", "key": {"lethal arrhythmia": {"test_system": "lethal arrhythmia", "experiment": "Lethal arrhythmia induced by coronary artery occlusion for 5 minutes with reperfusion", "type": "in vivo, Male Wistar rats", "procedure": "Inhibitory effects of Compounds A and B on lethal arrhythmia were determined by the following method:\nMale Wistar rats (10-week-old) were anaesthetized with pentobarbital and the chest was opened to expose the heart. Arrhythmia was induced by coronary artery occlusion for 5 minutes with reperfusion of the coronary blood flow. Ventricular arrhythmia observed during occlusion and for 5 minutes after reperfusion was recorded on Mac Lab through polygraph, and the II Lead electro-cardiogram was recorded. Ventricular tachycardia (VT) was counted when premature ventricular complex (PVC) continued more than 5 times. Each of the drugs was dissolved in saline and administered from the femoral vein 5 minutes before coronary artery occlusion."}, "myocardial infarct size": {"test_system": "myocardial infarct size", "experiment": "Rat acute myocardial infarction model (extension of myocardial infarct size)", "type": "in vivo", "conditions": "1 mg/kg, i.v.", "procedure": "(1) Inhibitory effects of Compound A on the extension of myocardial infarct size were determined by \"Rat acute myocardial infarction model\" described in British Journal of Pharmacology, 114, 949-954 (1995).\n(2) Inhibitory effects of Compound B [(S)-(-)-7-(2-chlorophenyl)-5-guanidinoimino-4-methyl-5,6,7,8-tetrahydroquinoline] on the extension of myocardial infarct size were determined by \"Rat acute myocardial infarction model\" described in British Journal of Pharmacology, 114, 949-954 (1995)."}, "[1]": {"conditions": "premature ventricular complex, drug in saline via femoral vein 5 minutes before coronary artery occlusion"}, "[2]": {"conditions": "ventricular tachycardia, drug in saline via femoral vein 5 minutes before coronary artery occlusion"}}}
{"smiles": "Cc1ccnc2c1C(=NNC(=N)N)C[C@@H](c1ccccc1Cl)C2", "note": "[Compound B, (S)-(-)-7-(2-chlorophenyl)-5-guanidinoimino-4-methyl-5,6,7,8-tetrahydroquinoline]", "values": [{"measurement": "PVC D (duration)", "setting": "lethal arrhythmia; [1]", "value": "20.9 ± 4.3", "unit": "s"}, {"measurement": "PVC N (number of PVCs)", "setting": "lethal arrhythmia; [1]", "value": "4.8±2.8", "unit": "time"}, {"measurement": "inhibitory effects on lethal arrhythmia", "setting": "lethal arrhythmia; summary in words of the arrhythmia table", "value": "showed inhibitory effects on lethal arrhythmia"}, {"measurement": "VT D (duration)", "setting": "lethal arrhythmia; [2]", "value": "7.2 ± 3.6", "unit": "s"}, {"measurement": "VT F (frequency)", "setting": "lethal arrhythmia; [2]", "value": "3.0±0.7", "unit": "time"}, {"measurement": "infarct size/area-at-risk", "setting": "myocardial infarct size; Post-treatment, 1 minute before reperfusion started", "value": "39±3", "unit": "%"}, {"measurement": "infarct size/area-at-risk", "setting": "myocardial infarct size; Pre-treatment, 5 minutes before coronary occlusion", "value": "30±5", "unit": "% t**"}]}
